Consider 17 compounds from US12378198B2, “Crystalline l-arginine salt of (R)-2-(7-(4-cyclopentyl-3-(trifluoromethyl)benzyloxy)-1,2,3,4-tetrahydrocyclo-penta [b]indol-3-yl)acetic acid(compound1) for use in SIPI receptor-associated disorders” (Arena Pharmaceuticals, Inc., priority 2015, dated 2025).

Structures can show the parent of a compound that is named as a salt. Where two headings read alike, the source gives them in different places. Bounds are passed on as bounds.

Data set [1] has as its system lymphocyte. The conditions noted are these: rat; reflects total plasma concentration; read-out: calculated lymphocyte lowering IC50; cited from earlier work.
For data set [2] the following is noted: human; cited from earlier work.
For data set [3], the target named is S1P3 (Homo sapiens, UniProt Q99500). The conditions noted are these: read-out: EC50 β-arrestin; cited from earlier work.
Sequence of S1P3 (Q99500 whole entry, species assumed): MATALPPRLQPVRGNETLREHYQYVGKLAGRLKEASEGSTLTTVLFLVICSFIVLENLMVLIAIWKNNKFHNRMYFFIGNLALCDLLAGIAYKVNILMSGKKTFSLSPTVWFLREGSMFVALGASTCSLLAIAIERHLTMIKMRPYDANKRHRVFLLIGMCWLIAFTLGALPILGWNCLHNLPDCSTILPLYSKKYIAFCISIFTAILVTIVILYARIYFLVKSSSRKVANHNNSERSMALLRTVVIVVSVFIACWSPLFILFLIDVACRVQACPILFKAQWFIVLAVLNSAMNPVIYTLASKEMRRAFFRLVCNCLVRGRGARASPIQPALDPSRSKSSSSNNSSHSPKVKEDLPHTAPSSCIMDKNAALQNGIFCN
For data set [4], the system named is experimental autoimmune encephalomyelitis (EAE) model. The settings on record: cited from earlier work.
For data set [5], the system named is lymphocyte. The conditions noted are these: mouse; reflects total plasma concentration; read-out: calculated lymphocyte lowering IC50; cited from earlier work.
For data set [6], the system named is collagen induced arthritis (CIA) model. The settings on record: cited from earlier work.
In data set [7] the test system is lymphocyte. The settings on record: monkey; reflects total plasma concentration; read-out: calculated lymphocyte lowering IC50; cited from earlier work.
The conditions of data set [8]: rat; cited from earlier work.
The target of data set [9] is S1P2 (Homo sapiens, UniProt O95136). The settings on record: read-out: EC50 β-arrestin; cited from earlier work.
Sequence of S1P2 (O95136 whole entry, species assumed): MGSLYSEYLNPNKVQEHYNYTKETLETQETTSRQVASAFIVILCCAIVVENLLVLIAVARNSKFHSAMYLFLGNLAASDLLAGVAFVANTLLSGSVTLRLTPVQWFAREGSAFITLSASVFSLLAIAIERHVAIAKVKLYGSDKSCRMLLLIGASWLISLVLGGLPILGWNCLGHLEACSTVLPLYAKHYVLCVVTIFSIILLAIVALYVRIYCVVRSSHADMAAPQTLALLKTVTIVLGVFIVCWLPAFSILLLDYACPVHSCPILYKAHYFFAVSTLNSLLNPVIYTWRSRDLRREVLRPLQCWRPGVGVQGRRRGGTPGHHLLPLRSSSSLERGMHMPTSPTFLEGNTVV
Data set [10] has as its system lymphocyte. The conditions noted are these: dog; reflects total plasma concentration; read-out: calculated lymphocyte lowering IC50; cited from earlier work.
For data set [11], the system named is lymphocyte count. Kind of data set: Phase 1b clinical trial, lymphocyte count lowering in blood. The data set is classed as in vivo, healthy volunteers. As for the experimental part: The L-arginine salt of Compound 1 was selected for clinical evaluation. A randomized, double-blind, placebo-controlled Phase 1b clinical trial was conducted to evaluate the safety, tolerability, pharmacodynamics, and pharmacokinetics of multiple-ascending doses of the L-arginine salt of Compound 1 in five different dosing cohorts. A total of 50 healthy volunteers received the L-arginine salt of Compound 1 and 10 healthy volunteers received placebo for 21 days.

Data set [12] is described as follows: BET specific surface area, nitrogen adsorption. The data set is classed as physicochemical. The settings on record: N2 adsorption at 77.3 K, eleven point method, P/P0 about 0.05 to about 0.3, degassed at 25° C. for 960 minutes. The text has this:
In addition to the techniques described herein, specific surface can also be used to characterize the free-plates of the present invention. Accordingly, the specific surface area values disclosed in the present invention have been obtained by means of a specific surface area analysis technique based on the BET (Brunauer, Emmett and Teller) theory, which is a well-accepted theory known in the art for the calculation of surface areas of solids by means of measuring their physical adsorption of gas molecules (see: Brunauer, S.; Emmett, P. H.; and Teller, E.; J. Am. Chem. Soc., 1938, 60, 309). In particular, the specific surface area values measured in the present invention have been calculated from the BET surface area plot obtained by measuring the quantity of nitrogen gas molecules adsorbed by a weighted amount of solid at different relative pressures (P/P0) within the range 0.05-0.3 (P/P0), at 77.3 K. The measurement of the adsorption of gas molecules was carried out by means of a Micromeritics™ TriStar II BET surface analyzer having the characteristics as set out below in Example 14. Namely, nitrogen gas was used for the adsorption measurement. The sample for each analysis was degassed at 25° C. for 960 minutes under vacuum (i.e., 100 mm/Hg). The determination of the adsorption of nitrogen was measured at 77.3 K at eleven relative pressures (P/P0) sufficiently dispersed within the range of about 0.05 to about 0.30 (i.e. eleven absolute pressures in the range of about 36 mm Hg to about 223 mm Hg relative to the saturated pressure at the time of measurement that ranged from about 738 mmHg to about 743 mmHg).
In general, the specific surface areas for Lots A1-A9 (plates) and H1-H6 (spherulites) were determined by physical adsorption of nitrogen gas on the surface of the sample from each lot using the well-established technique based on the Brunauer, Emmett, and Teller theory.
The BET surface areas for the samples were measured by Micromeritics Pharmaceutical Services using a Micromeritics™ TriStar II BET surface area analyzer (MicroActive for TriStar II Plus 2.02 Software™). The samples were degassed at 25° C. for 960 minutes under vacuum (i.e., 100 mm/Hg). The determination of the adsorption of N2 at 77.3 K was measured using a BET surface area eleven point method with relative pressures in the range of about 0.05 to about 0.3 (P/P0) for a weighed amount of each sample, see TABLE M1, TABLE M2, and TABLE N below. The analysis was performed per ISO9277.

Data set [13] in a line: Dynamic moisture-sorption (DMS) analysis. The data set is classed as physicochemical. The settings on record: DMS at 25° C. As for the experimental part:
A dynamic moisture-sorption (DMS) analysis was performed on representative Lot A2 (see, Example 3, TABLE A) of the L-arginine salt of Compound 1 having the plate morphology and representative Lot H2 (prepared in a similar manner as described in Example 8, Method 2 Steps G and H in WO2011/094008; and described in TABLE K, Example 8 herein) of the L-arginine salt of Compound 1 having the spherulite morphology. […] By comparison the L-arginine salt of Compound 1 (spherulite morphology) gained between 0.5% weight (adsorption cycle) and 0.7% weight (desorption cycle) at 90% RH and 25° C. […] DMS analysis was performed using a TA Instruments Q5000 SA (EQ2418). Instrument performance was verified in-house. Samples were added to a tared sample holder on the Q5000 SA balance. The sample was dried at 40° C. and then analyzed at 25° C. with an adsorption phase from 30% RH to 90% RH and a desorption phase from 90% RH to 10% RH.

For the compound `O=C(O)C[C@H]1CCc2c1[nH]c1ccc(OCc3ccc(C4CCCC4)c(C(F)(F)F)c3)cc21` [Compound 1, (R)-2-(7-(4-cyclopentyl-3-(trifluoromethyl)benzyloxy)-1,2,3,4-tetrahydrocyclopenta[b]indol-3-yl)acetic acid], the IC50 in data set [1] is 51 nM; in data set [5], 101 nM; in data set [7], 98 nM; in [10], 58 nM. Further, the protein bound is reported as 97.8% in data set [2] and 98.0% in [8]. Further, the EC50 in [3] and in [9] was > 10000 nM throughout. In addition, the “EAE disease, therapeutic administration” value in [4] (administered day 18 to day 37, all animals with severe disease at start, similar to fingolimod) is recorded as “reverse the disease relative to vehicle”. Besides, the “EAE disease onset and severity, prophylactic” value in [4] (prophylactic dosing, discontinued at day 25, relative to vehicle) was “prevented the onset and severity of disease relative to vehicle up to day 25”. Besides, in [6] (CIA rats), the “histological parameters in knees and ankles” value was “Improvement in histological parameters in the knees and ankles”. The ankle diameters result in data set [6] (prophylactic daily oral dose, day 17, similar to fingolimod or methotrexate) is reported as “significant reduction in ankle diameters”.
For `O=C(O)C[C@H]1CCc2c1[nH]c1ccc(OCc3ccc(C4CCCC4)c(C(F)(F)F)c3)cc21` [L-arginine salt of Compound 1, L-arginine salt of (R)-2-(7-(4-cyclopentyl-3-(trifluoromethyl)benzyloxy)-1,2,3,4-tetrahydrocyclo-penta[b]indol-3-yl)acetic acid], the “lymphocyte count, mean decrease from baseline” value in data set [11] (multiple-ascending doses for 21 days, dose-dependent) is listed as “up to 69%”. The “lymphocyte count recovery to baseline” value in data set [11] (on average, after conclusion of dosing) is listed as “within one week”.
Consider `O=C(O)C[C@H]1CCc2c1[nH]c1ccc(OCc3ccc(C4CCCC4)c(C(F)(F)F)c3)cc21` [Lot A1], for which the “BET Surface Area” value in data set [12] (listed as A1) was 0.7 m^2/g.
On to `O=C(O)C[C@H]1CCc2c1[nH]c1ccc(OCc3ccc(C4CCCC4)c(C(F)(F)F)c3)cc21` [Lot A2], for which, in data set [12] (listed as A2), the “BET Surface Area” value is on record as 0.7 m^2/g. Further, the hygroscopicity result in data set [13] is reported as “non-hygroscopic”. In addition, the “weight gain at 90% RH” value in data set [13] (90% RH) turned out to be 0.2 % weight.
Turning to `O=C(O)C[C@H]1CCc2c1[nH]c1ccc(OCc3ccc(C4CCCC4)c(C(F)(F)F)c3)cc21` [Lot A3], the “BET Surface Area” value in [12] (listed as A3) is given as 1.5 m^2/g.
As for `O=C(O)C[C@H]1CCc2c1[nH]c1ccc(OCc3ccc(C4CCCC4)c(C(F)(F)F)c3)cc21` [Lot A4], in data set [12] (listed as A4), the “BET Surface Area” value came out at 1.0 m^2/g.
On to `O=C(O)C[C@H]1CCc2c1[nH]c1ccc(OCc3ccc(C4CCCC4)c(C(F)(F)F)c3)cc21` [Lot A5], for which the “BET Surface Area” value in [12] (listed as A5) amounted to 0.8 m^2/g.
Turning to `O=C(O)C[C@H]1CCc2c1[nH]c1ccc(OCc3ccc(C4CCCC4)c(C(F)(F)F)c3)cc21` [Lot A6], the “BET Surface Area” value in data set [12] (listed as A6) was 2.4 m^2/g.
Consider `O=C(O)C[C@H]1CCc2c1[nH]c1ccc(OCc3ccc(C4CCCC4)c(C(F)(F)F)c3)cc21` [Lot A7], for which the “BET Surface Area” value in [12] (listed as A7) is recorded as 1.9 m^2/g.
On to `O=C(O)C[C@H]1CCc2c1[nH]c1ccc(OCc3ccc(C4CCCC4)c(C(F)(F)F)c3)cc21` [Lot A8], for which, in [12] (listed as A8), the “BET Surface Area” value is listed as 3.0 m^2/g.
On to `O=C(O)C[C@H]1CCc2c1[nH]c1ccc(OCc3ccc(C4CCCC4)c(C(F)(F)F)c3)cc21` [Lot A9], for which, in data set [12] (listed as A9), the “BET Surface Area” value is listed as 3.1 m^2/g.
As for `O=C(O)C[C@H]1CCc2c1[nH]c1ccc(OCc3ccc(C4CCCC4)c(C(F)(F)F)c3)cc21` [Lot H1], the “BET Surface Area” value in data set [12] (listed as H1) amounted to 10.0 m^2/g.
Regarding `O=C(O)C[C@H]1CCc2c1[nH]c1ccc(OCc3ccc(C4CCCC4)c(C(F)(F)F)c3)cc21` [Lot H2], in [12] (listed as H2), the “BET Surface Area” value is 13.5 m^2/g. In addition, the “weight gain at 90% RH (adsorption cycle)” value in data set [13] (90% RH, adsorption cycle) was determined as 0.5 % weight. Besides, the “weight gain at 90% RH (desorption cycle)” value in data set [13] (90% RH, desorption cycle) is on record as 0.7 % weight.
On to `O=C(O)C[C@H]1CCc2c1[nH]c1ccc(OCc3ccc(C4CCCC4)c(C(F)(F)F)c3)cc21` [Lot H3], for which, in data set [12] (listed as H3), the “BET Surface Area” value was determined as 11.8 m^2/g.
As to `O=C(O)C[C@H]1CCc2c1[nH]c1ccc(OCc3ccc(C4CCCC4)c(C(F)(F)F)c3)cc21` [Lot H4], the “BET Surface Area” value in data set [12] (listed as H4) is recorded as 12.0 m^2/g.
For `O=C(O)C[C@H]1CCc2c1[nH]c1ccc(OCc3ccc(C4CCCC4)c(C(F)(F)F)c3)cc21` [Lot H5], the “BET Surface Area” value in data set [12] (listed as H5) stood at 10.9 m^2/g.
Turning to `O=C(O)C[C@H]1CCc2c1[nH]c1ccc(OCc3ccc(C4CCCC4)c(C(F)(F)F)c3)cc21` [Lot H6], the “BET Surface Area” value in data set [12] (listed as H6) is 12.3 m^2/g.

As usually defined, the IC50 is the point on the concentration scale where inhibition reaches its midpoint. Broadly, the EC50 is the concentration that produces a half-maximal response.
